In patent publication US8192962B2, “Processes for detecting toxic substances” (Daikin Industries, Ltd., priority 2001, dated 2012):

Test system: Genes belonging to other category
Experiment: DNA chip mRNA expression in yeast, genes belonging to other category (Table 9)
Assay type: cell-based, Saccharomyces cerevisiae S288C
Outline: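 First, S288C yeast grown in YPD at 25° C. are dosed in log phase with one toxicant (growth-inhibiting, not lethal) for 2 h. Next, total RNA is extracted and poly(A) mRNA isolated and reverse-transcribed with Cy3/Cy5-dUTP. Finally, whole-genome chip fluorescence is read relative to unexposed cells.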

Measured: The level of expressed mRNA in the presence of chemical substance/The level of expressed mRNA in the absence of chemical substance

CCCCC[C@H](O)CC(=O)CCc1ccc(O)c(OC)c1 [(13), gingerol]
2.6: yeast gene YBL041W | yeast gene YMR314W | yeast gene YPR108W
1.6: yeast gene YDR104C | yeast gene YDR315C | yeast gene YEL066W | yeast gene YER130C | yeast gene YJL073W | yeast gene YKL139W | yeast gene YMR139W | yeast gene YMR226C
3.2: yeast gene YDR358W | yeast gene YKL165C
1.2: yeast gene YGR189C | yeast gene YHR142W | yeast gene YLR250W | yeast gene YNL214W | yeast gene YOR181W | yeast gene YOR383C
0.5: yeast gene YDL212W
1.3: yeast gene YCR004C | yeast gene YCR071C | yeast gene YER136W | yeast gene YJR122W | yeast gene YKL013C | yeast gene YKL041W | yeast gene YKL190W | yeast gene YLL051C | yeast gene YLR093C | yeast gene YMR051C | yeast gene YOR149C | yeast gene YPL089C
0.4: yeast gene YEL042W | yeast gene YIL123W
2.2: yeast gene YMR004W | yeast gene YNL093W | yeast gene YNL333W | yeast gene YOR185C | yeast gene YPL018W
1.5: yeast gene YDR481C | yeast gene YFL043C | yeast gene YJR099W | yeast gene YJR125C | yeast gene YKR014C | yeast gene YMR104C | yeast gene YNR007C | yeast gene YPL203W
2.1: yeast gene YKL193C | yeast gene YMR219W | yeast gene YMR275C | yeast gene YNL007C
2.0: yeast gene YAL007C | yeast gene YBR109C | yeast gene YDL008W | yeast gene YDL238C | yeast gene YGR257C | yeast gene YNL223W
3.1: yeast gene YDR055W
3.0: yeast gene YCL020W | yeast gene YOL016C
4.0: yeast gene YDL097C
0.6: yeast gene YFL022C | yeast gene YOL104C | yeast gene YPL255W
4.8: yeast gene YLR120C
2.8: yeast gene YLR327C | yeast gene YNR010W
1.1: yeast gene YCL027W | yeast gene YDR085C | yeast gene YDR115W | yeast gene YHR004C | yeast gene YOR355W
1.8: yeast gene YBL043W | yeast gene YDR518W | yeast gene YJL089W | yeast gene YOL013C
1.9: yeast gene YBR201W | yeast gene YCR088W | yeast gene YKL039W | yeast gene YMR276W
2.3: yeast gene YHR071W | yeast gene YNL006W | yeast gene YOR117W | yeast gene YPL149W
4.3: yeast gene YDL126C
1.7: yeast gene YDR388W | yeast gene YGL229C | yeast gene YGR136W | yeast gene YKL008C | yeast gene YLR090W | yeast gene YLR251W | yeast gene YMR262W | yeast gene YNR035C | yeast gene YOR381W
0.1: yeast gene YKL096W
1.0: yeast gene YDR084C | yeast gene YGL158W
2.9: yeast gene YBL005W-A | yeast gene YER012W | yeast gene YLR136C
